From PubChem BioAssay AID328 (DTP/NCI, 2004) come the findings set out here.

The test system of this assay is BDF1 mice, P388 leukemia ip, median survival T/C. Description: NCI In Vivo Anticancer Drug Screen. Data for tumor model P388 Leukemia (intraperitoneal) in B6D2F1 (BDF1) mice. Conditions: endpoint: median survival time, higher = longer survival. Put shortly: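 Transplantable tumour in mice; compound vs vehicle dosing; survival scored; ratio of treated to control reported.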

[1] abbreviates: dose: 12.5 mg/kg/injection, schedule: Q01DX009 (ip), vehicle: saline.
Where [2] appears, read: dose: 25.0 mg/kg/injection, schedule: Q01DX009 (ip), vehicle: saline.
Where [3] appears, read: dose: 12.0 mg/kg/injection, schedule: Q01DX009 (ip), vehicle: saline with Tween-80.
[4] abbreviates: dose: 12.5 mg/kg/injection, schedule: Q04DX003 (ip), vehicle: saline with Tween-80.
Setting [5] is: dose: 18.0 mg/kg/injection, schedule: Q01DX009 (ip), vehicle: saline with Tween-80.
Where [6] appears, read: dose: 25.0 mg/kg/injection, schedule: Q01DX009 (ip), vehicle: saline with Tween-80.
[7] abbreviates: dose: 50.0 mg/kg/injection, schedule: Q01DX009 (ip), vehicle: saline with Tween-80.
Where [8] appears, read: dose: 100.0 mg/kg/injection, schedule: Q01DX009 (ip), vehicle: saline with Tween-80.
[9] abbreviates: dose: 100.0 mg/kg/injection, schedule: Q04DX003 (ip), vehicle: Klucel (hydroxypropylcellulose) (HPC).
Setting [10] is: dose: 200.0 mg/kg/injection, schedule: Q04DX003 (ip), vehicle: Klucel (hydroxypropylcellulose) (HPC).
Where [11] appears, read: dose: 100.0 mg/kg/injection, schedule: Q04DX003 (ip), vehicle: saline.
Setting [12] is: dose: 200.0 mg/kg/injection, schedule: Q04DX003 (ip), vehicle: saline.
The mark [13] stands for this setting: dose: 400.0 mg/kg/injection, schedule: Q04DX003 (ip), vehicle: saline.
[14] abbreviates: dose: 50.0 mg/kg/injection, schedule: Q01DX005 (ip), vehicle: saline with Tween-80.
Where [15] appears, read: dose: 100.0 mg/kg/injection, schedule: Q01DX005 (ip), vehicle: saline with Tween-80.
[16] abbreviates: dose: 25.0 mg/kg/injection, schedule: Q04DX003 (ip), vehicle: saline with Tween-80.
The mark [17] stands for this setting: dose: 200.0 mg/kg/injection, schedule: Q04DX003 (ip), vehicle: saline with Tween-80.

Molecules are shown by their SMILES. Values joined by “and” are separate entries in the source; they are usually repeats but may differ in a detail not shown here. Equal entries are not always repeated. Toxic doses and inconclusive results are not listed.

In the case of `C[N+](C)(C)N=C1CCC2(CC1)c1ccccc1-c1ccccc12`, the T/C (dose: 5.15 mg/kg/injection, schedule: Q04DX003 (ip), vehicle: saline) is 95 % of control; the T/C (dose: 6.25 mg/kg/injection, schedule: Q01DX009 (ip), vehicle: saline) was 95 % of control; the T/C (dose: 10.31 mg/kg/injection, schedule: Q04DX003 (ip), vehicle: saline) was 100 % of control; the T/C under setting [1] was 91 % of control; the T/C (dose: 20.62 mg/kg/injection, schedule: Q04DX003 (ip), vehicle: saline) is 115 % of control; the T/C under setting [2] was 100 % of control. The T/C was 113 % of control (dose: 35.0 mg/kg/injection, schedule: Q01DX009 (ip), vehicle: saline); 104 % of control (dose: 41.25 mg/kg/injection, schedule: Q04DX003 (ip), vehicle: saline); 90 % of control (dose: 55.0 mg/kg/injection, schedule: Q01DX009 (ip), vehicle: saline).
Turning to `CC1(C)N=C(N)N=C(N)N1c1ccc(CCCCc2cccc(S(=O)(=O)F)c2)c(Cl)c1`, the T/C runs as follows: (dose: 1.0 mg/kg/injection, schedule: Q01DX009 (ip), vehicle: saline with Tween-80) 119 % of control; (dose: 1.32 mg/kg/injection, schedule: Q01DX009 (ip), vehicle: saline with Tween-80) 150 % of control; (dose: 2.0 mg/kg/injection, schedule: Q01DX009 (ip), vehicle: saline with Tween-80) 150 % of control; (dose: 3.0 mg/kg/injection, schedule: Q01DX009 (ip), vehicle: saline with Tween-80) 154 % of control; (dose: 4.0 mg/kg/injection, schedule: Q01DX009 (ip), vehicle: saline with Tween-80) 161 % of control; (dose: 8.0 mg/kg/injection, schedule: Q01DX009 (ip), vehicle: saline with Tween-80) 161 % of control and 170 % of control. Moreover, the T/C under setting [3] is 170 % of control, the T/C under setting [4] is 109 % of control and the T/C under setting [5] is 200 % of control.
On to `O=C(O)c1ccccc1P12(OC(=O)c3ccccc31)OC(=O)c1ccccc12`, for which the T/C is, setting by setting: under setting [6], 99 % of control; under setting [7], 99 % of control; under setting [8], 90 % of control.
Consider `CCSc1nc(C(OC)OC)c(Cc2ccccc2)c(=O)[nH]1`, for which the T/C is 90 % of control under setting [9]; 90 % of control under setting [10]; 90 % of control (dose: 400.0 mg/kg/injection, schedule: Q04DX003 (ip), vehicle: Klucel (hydroxypropylcellulose) (HPC)).
For the compound `CC(CS(=O)(=O)O)N1CCN(CCO)CC1` (stereo unspecified), the T/C was 95 % of control under setting [11], 100 % of control under setting [12] and 100 % of control under setting [13].
Take `O=S(=O)(Cc1ccc(Cl)cc1)c1nc2ccccc2s1`: the T/C under setting [14] was 107 % of control and the T/C under setting [15] was 105 % of control.
For the compound `C1CC[N-]CC1.C1CC[N-]CC1.C1CC[N-]CC1.C1CC[N-]CC1.[Cl][Rh][Cl]`, the T/C (dose: 12.5 mg/kg/injection, schedule: Q04DX003 (ip), vehicle: saline) was 118 % of control.
Regarding `CCOC(=O)c1c[nH]c(=S)n1C`, the T/C (dose: 100.0 mg/kg/injection, schedule: Q01DX009 (ip), vehicle: Klucel (hydroxypropylcellulose) (HPC)) is 95 % of control; the T/C under setting [9] is 95 % of control; the T/C (dose: 200.0 mg/kg/injection, schedule: Q01DX009 (ip), vehicle: Klucel (hydroxypropylcellulose) (HPC)) was 104 % of control; the T/C under setting [10] was 91 % of control.
Consider `CNCc1cccs1`, for which the T/C under setting [11] was 106 % of control, the T/C under setting [12] is 117 % of control and the T/C under setting [13] is 100 % of control.
Turning to `OCCNCCNc1ccnc2cc(Cl)ccc12`, the T/C under setting [1] was 102 % of control; the T/C under setting [2] is 115 % of control; the T/C (dose: 50.0 mg/kg/injection, schedule: Q01DX009 (ip), vehicle: saline) was 116 % of control; the T/C (dose: 100.0 mg/kg/injection, schedule: Q01DX009 (ip), vehicle: saline) is 118 % of control.
Turning to `CCSc1ncnc2c1ncn2CN1CCOCC1`, the T/C by setting is: under setting [6], 86 % of control; under setting [7], 95 % of control; under setting [8], 168 % of control; (dose: 150.0 mg/kg/injection, schedule: Q01DX009 (ip), vehicle: saline) 100 % of control; (dose: 330.0 mg/kg/injection, schedule: Q01DX009 (ip), vehicle: saline) 110 % of control.
With `CCCCOCN(COCCCC)c1ccccc1Cl`, the T/C is 116 % of control under setting [7]; 107 % of control and 121 % of control under setting [8].
Turning to `CC(C)(C)c1ccc(/C(N)=N/O)cc1`, the T/C was 92 % of control under setting [14] and 101 % of control under setting [15].
Consider `O=C(Nc1nc(Cl)nc(Cl)n1)N1CCOCC1`, for which the T/C is, setting by setting: (dose: 6.25 mg/kg/injection, schedule: Q01DX009 (ip), vehicle: saline with Tween-80) 104 % of control; (dose: 9.0 mg/kg/injection, schedule: Q01DX009 (ip), vehicle: saline with Tween-80) 103 % of control; under setting [3], 112 % of control; under setting [4], 118 % of control; under setting [5], 112 % of control; under setting [16], 109 % of control.
In the case of `Cc1cc(C)c(-c2cc(O)c(C)cc2O)c(C)c1`, the T/C by setting is: (dose: 0.39 mg/kg/injection, schedule: Q04DX003 (ip), vehicle: other) 103 % of control; (dose: 0.78 mg/kg/injection, schedule: Q04DX003 (ip), vehicle: other) 108 % of control; (dose: 1.56 mg/kg/injection, schedule: Q04DX003 (ip), vehicle: other) 104 % of control; (dose: 3.12 mg/kg/injection, schedule: Q04DX003 (ip), vehicle: other) 90 % of control and 108 % of control; (dose: 6.25 mg/kg/injection, schedule: Q04DX003 (ip), vehicle: other) 88 % of control and 100 % of control; (dose: 12.5 mg/kg/injection, schedule: Q01DX009 (ip), vehicle: other) 97 % of control. For the same compound, the T/C (dose: 12.5 mg/kg/injection, schedule: Q04DX003 (ip), vehicle: other) is 108 % of control and 109 % of control; the T/C (dose: 25.0 mg/kg/injection, schedule: Q01DX009 (ip), vehicle: other) was 118 % of control; the T/C (dose: 25.0 mg/kg/injection, schedule: Q04DX003 (ip), vehicle: other) was 92 % of control; the T/C under setting [16] is 100 % of control; the T/C (dose: 65.0 mg/kg/injection, schedule: Q04DX003 (ip), vehicle: Klucel (hydroxypropylcellulose) (HPC)) was 105 % of control; the T/C (dose: 100.0 mg/kg/injection, schedule: Q01DX009 (ip), vehicle: other) was 102 % of control. Further, the T/C is, setting by setting: under setting [9], 114 % of control; (dose: 150.0 mg/kg/injection, schedule: Q04DX003 (ip), vehicle: Klucel (hydroxypropylcellulose) (HPC)) 109 % of control; under setting [17], 93 % of control.
On to `CCOC(=O)CCC(NC(=O)N(CCCl)CCCl)C(=O)OCC` (stereo unspecified), for which the T/C by setting is: (dose: 132.0 mg/kg/injection, schedule: Q04DX003 (ip), vehicle: saline with Tween-80) 175 % of control; under setting [17], 204 % of control; (dose: 300.0 mg/kg/injection, schedule: Q04DX003 (ip), vehicle: saline with Tween-80) 183 % of control.
As to `CC(C)(C)c1ccc2c(cc[n+]3ccccc23)c1`, the T/C runs as follows: (dose: 1.56 mg/kg/injection, schedule: Q01DX005 (ip), vehicle: saline with Tween-80) 115 % of control; (dose: 3.13 mg/kg/injection, schedule: Q01DX005 (ip), vehicle: saline with Tween-80) 123 % of control.
